Patent US20260083721A1, “7-CYANO-8-HYDROXYQUINOLINE DERIVATIVE, PREPARATION METHOD THEREFOR AND MEDICAL USE THEREOF” (Jiangsu Yahong Meditech Co., Ltd., priority 2022, published 2026)
Converted amounts (≈) assume the structure as drawn.

Columns and labels:
Format in all cases: cell-based
[1] = test system: carbapenem-resistant Escherichia coli 18-W09-093; test: MIC by broth microdilution, carbapenem-resistant E. coli 18-W09-093; conditions: carbapenem-resistant clinical isolate, CAMHB, 35±2° C., 20 hours, drug concentration range 128 mg/L to 0.06 mg/L, read-out: inhibitory MIC value, Escherichia coli 18-W09-093
Description: (§1) The test bacteria were 2 strains of carbapenem-resistant Escherichia coli (18-W09-093 and 18-W18-070), 2 strains of carbapenem-resistant Acinetobacter baumannii (18-W15-036 and 18-W13-081), 1 strain of methicillin-resistant Staphylococcus aureus (19-W03-012) and 1 strain of methicillin-sensitive Staphylococcus aureus (19-W01-012), isolated clinically, with duplicate strains isolated from the same patient being excluded. Besides, there were 3 quality control strains, namely Escherichia co/i ATCC 25922, Acinetobacter baumannii ATCC 19606, and Staphylococcus aureus ATCC 29213. The above strains were all provided by Shanghai GenoMatrix Medical Laboratory Co., Ltd.
(§2) The MIC of the compound of the present invention on clinically isolated strains was assayed by the broth microdilution method according to the relevant documents from the Clinical and Laboratory Standards Institute (CLSI) of United States. • 3.1 Preparation of antimicrobial drugs: the compounds of the present invention were all dissolved with DMSO. The drug concentration ranged from 128 mg/L to 0.06 mg/L. • 3.2 Culture medium: cation adjusted Mueller-Hinton broth (CAMHB) was used. • 3.3 Inoculation amount of bacteria: the isolated pure culture of test bacteria cultured overnight was adjusted to 0.5 McFarland turbidity by direct colony suspension and diluted 100 folds, and the final inoculation amount was 10^5 CFU/mL. • 3.4 Culture conditions: the bacteria were cultured in air at 35±2° C. for 20 hours.
(§3) The results of the drug sensitivity test were interpretated according to the standards of CLSI M100-ED29:2019.
(§4) The statistical analysis of the results of the drug sensitivity test was done by using WHONET version 5.6 software.

[2] = test system: carbapenem-resistant Escherichia coli 18-W18-070; test: MIC by broth microdilution, carbapenem-resistant E. coli 18-W18-070; conditions: carbapenem-resistant clinical isolate, CAMHB, 35±2° C., 20 hours, drug concentration range 128 mg/L to 0.06 mg/L, read-out: inhibitory MIC value, Escherichia coli 18-W18-070
Description: as §1, §2, §3, §4

[3] = test system: Escherichia coli ATCC25922; test: MIC by broth microdilution, E. coli ATCC 25922; conditions: quality control strain, CAMHB, 35±2° C., 20 hours, drug concentration range 128 mg/L to 0.06 mg/L, read-out: inhibitory MIC value, Escherichia coli ATCC25922
Description: as §1, §2, §3, §4

[4] = test system: carbapenem-resistant Acinetobacter baumannii 18-W15-036; test: MIC by broth microdilution, carbapenem-resistant A. baumannii 18-W15-036; conditions: carbapenem-resistant clinical isolate, CAMHB, 35±2° C., 20 hours, drug concentration range 128 mg/L to 0.06 mg/L, read-out: inhibitory MIC value, Acinetobacter baumannii 18-W15-036
Description: as §1, §2, §3, §4

[5] = test system: carbapenem-resistant Acinetobacter baumannii 18-W13-081; test: MIC by broth microdilution, carbapenem-resistant A. baumannii 18-W13-081; conditions: carbapenem-resistant clinical isolate, CAMHB, 35±2° C., 20 hours, drug concentration range 128 mg/L to 0.06 mg/L, read-out: inhibitory MIC value, Acinetobacter baumannii 18-W13-081
Description: as §1, §2, §3, §4

[6] = test system: Acinetobacter baumannii ATCC19606; test: MIC by broth microdilution, A. baumannii ATCC 19606; conditions: quality control strain, CAMHB, 35±2° C., 20 hours, drug concentration range 128 mg/L to 0.06 mg/L, read-out: inhibitory MIC value, Acinetobacter baumannii ATCC19606
Description: as §1, §2, §3, §4

[7] = test system: methicillin-resistant Staphylococcus aureus 19-W03-012; test: MIC by broth microdilution, methicillin-resistant S. aureus 19-W03-012; conditions: methicillin-resistant clinical isolate, CAMHB, 35±2° C., 20 hours, drug concentration range 128 mg/L to 0.06 mg/L, read-out: inhibitory MIC value, Staphylococcus aureus 19-W03-012
Description: as §1, §2, §3, §4

[8] = test system: methicillin-sensitive Staphylococcus aureus 19-W01-012; test: MIC by broth microdilution, methicillin-sensitive S. aureus 19-W01-012; conditions: methicillin-sensitive clinical isolate, CAMHB, 35±2° C., 20 hours, drug concentration range 128 mg/L to 0.06 mg/L, read-out: inhibitory MIC value, Staphylococcus aureus 19-W01-012
Description: as §1, §2, §3, §4

[9] = test system: Staphylococcus aureus ATCC29213; test: MIC by broth microdilution, S. aureus ATCC 29213; conditions: quality control strain, CAMHB, 35±2° C., 20 hours, drug concentration range 128 mg/L to 0.06 mg/L, read-out: inhibitory MIC value, Staphylococcus aureus ATCC29213
Description: as §1, §2, §3, §4

MIC [1]	MIC [2]	MIC [3]	MIC [4]	MIC [5]	MIC [6]	MIC [7]	MIC [8]	MIC [9]	SMILES
32 µg/mL (≈ 128 µM)	32 µg/mL (≈ 128 µM)	8 µg/mL (≈ 32.1 µM)	16 µg/mL (≈ 64.2 µM)	4 µg/mL (≈ 16.1 µM)	4 µg/mL (≈ 16.1 µM)	4 µg/mL (≈ 16.1 µM)	4 µg/mL (≈ 16.1 µM)	4 µg/mL (≈ 16.1 µM)	N#Cc1cc(Br)c2cccnc2c1O [Compound 1, 5-bromo-7-cyano-8-hydroxyquinoline]
64 µg/mL (≈ 269 µM)	64 µg/mL (≈ 269 µM)	32 µg/mL (≈ 134 µM)	64 µg/mL (≈ 269 µM)	32 µg/mL (≈ 134 µM)	16 µg/mL (≈ 67.2 µM)	4 µg/mL (≈ 16.8 µM)	4 µg/mL (≈ 16.8 µM)	8 µg/mL (≈ 33.6 µM)	N#Cc1cc(C(F)(F)F)c2cccnc2c1O [Compound 2, 5-trifluoromethyl-7-cyano-8-hydroxyquinoline]
16 µg/mL (≈ 86.9 µM)	16 µg/mL (≈ 86.9 µM)	8 µg/mL (≈ 43.4 µM)	8 µg/mL (≈ 43.4 µM)	8 µg/mL (≈ 43.4 µM)	8 µg/mL (≈ 43.4 µM)	8 µg/mL (≈ 43.4 µM)	8 µg/mL (≈ 43.4 µM)	8 µg/mL (≈ 43.4 µM)	Cc1ccnc2c(O)c(C#N)ccc12 [Compound 3, 4-methyl-7-cyano-8-hydroxyquinoline]
16 µg/mL (≈ 85 µM)	16 µg/mL (≈ 85 µM)	8 µg/mL (≈ 42.5 µM)	8 µg/mL (≈ 42.5 µM)	8 µg/mL (≈ 42.5 µM)	4 µg/mL (≈ 21.3 µM)	16 µg/mL (≈ 85 µM)	16 µg/mL (≈ 85 µM)	16 µg/mL (≈ 85 µM)	N#Cc1ccc2ccc(F)nc2c1O [Compound 4, 2-fluoro-7-cyano-8-hydroxyquinoline]
32 µg/mL (≈ 146 µM)	16 µg/mL (≈ 73.2 µM)	8 µg/mL (≈ 36.6 µM)	8 µg/mL (≈ 36.6 µM)	2 µg/mL (≈ 9.15 µM)	4 µg/mL (≈ 18.3 µM)	2 µg/mL (≈ 9.15 µM)	4 µg/mL (≈ 18.3 µM)	4 µg/mL (≈ 18.3 µM)	Cc1ccnc2c(O)c(C#N)cc(Cl)c12 [Compound 5, 4-methyl-5-chloro-7-cyano-8-hydroxyquinoline]
32 µg/mL (≈ 122 µM)	32 µg/mL (≈ 122 µM)	8 µg/mL (≈ 30.4 µM)	32 µg/mL (≈ 122 µM)	4 µg/mL (≈ 15.2 µM)	4 µg/mL (≈ 15.2 µM)	2 µg/mL (≈ 7.6 µM)	4 µg/mL (≈ 15.2 µM)	4 µg/mL (≈ 15.2 µM)	Cc1ccnc2c(O)c(C#N)cc(Br)c12 [Compound 6, 4-methyl-5-bromo-7-cyano-8-hydroxyquinoline]
> 64 µg/mL	> 64 µg/mL	32 µg/mL (≈ 134 µM)	32 µg/mL (≈ 134 µM)	4 µg/mL (≈ 16.7 µM)	2 µg/mL (≈ 8.37 µM)	0.5 µg/mL (≈ 2.09 µM)	0.5 µg/mL (≈ 2.09 µM)	1 µg/mL (≈ 4.18 µM)	N#Cc1c(Cl)c(Cl)c2cccnc2c1O [Compound 7, 5,6-dichloro-7-cyano-8-hydroxyquinoline]
> 64 µg/mL	> 64 µg/mL	> 64 µg/mL	> 64 µg/mL	> 64 µg/mL	> 64 µg/mL	> 64 µg/mL	> 64 µg/mL	> 64 µg/mL	N#Cc1cc(C(=O)O)c2cccnc2c1O [Compound 8, 7-cyano-8-hydroxyquinoline-5-carboxylic acid]
32 µg/mL (≈ 156 µM)	32 µg/mL (≈ 156 µM)	16 µg/mL (≈ 78.2 µM)	16 µg/mL (≈ 78.2 µM)	8 µg/mL (≈ 39.1 µM)	4 µg/mL (≈ 19.5 µM)	8 µg/mL (≈ 39.1 µM)	8 µg/mL (≈ 39.1 µM)	8 µg/mL (≈ 39.1 µM)	N#Cc1cc(Cl)c2cccnc2c1O [Compound 9, 5-chloro-7-cyano-8-hydroxyquinoline]
8 µg/mL (≈ 43.4 µM)	16 µg/mL (≈ 86.9 µM)	8 µg/mL (≈ 43.4 µM)	8 µg/mL (≈ 43.4 µM)	4 µg/mL (≈ 21.7 µM)	4 µg/mL (≈ 21.7 µM)	4 µg/mL (≈ 21.7 µM)	4 µg/mL (≈ 21.7 µM)	4 µg/mL (≈ 21.7 µM)	Cc1cc(C#N)c(O)c2ncccc12 [Compound A, reference compound]
